Tests used:
porcine collagen [1] = assay: Early glycation product (fructosamine) formation; type: biochemical; settings: versus untreated glycated collagen control
Protocol: (§1) In order to evaluate the ability to prevent glycation of collagen of the Chenopodium formosanum extract, firstly, porcine collagen (60 mg/mL) and fructose (1.5 M) were respectively prepared in 0.2 M potassium phosphate buffer (pH 7.4, containing 0.06% sodium azide). For each reaction of glycation, 100 μL of porcine collagen, 100 μL of fructose solution, and 100 μL of deionized water were deposited in a 1.5 mL microfuge tube. After incubation, the reacted solutions were stored frozen at −20° C. For determination of collagen-fructose glycation, a glycation inhibitor of aminoguanidine (AG) (Sigma) was used. 100 μL of 3 mM AG solution (prepared in deionized water) was introduced in substitution of the deionized water in each of the reactions described above containing collagen and fructose. Meanwhile, different concentrations of the whole grain (un-dehulled) Chenopodium formosanum extract were also prepared and introduced to the reactions describe above. For determination of the intensity, 100 μL of each reacted solution was withdrawn to a well of a 96-well plate and subjected to intensity determination by a spectrofluorometer (FLx 800, BioTek, Winooski, Vt.) set at 360 nm of excitation and 460 nm of emission.
Amadori product such as fructosamine is formed at the early stage of glycation. […]

porcine collagen [2] = assay: Intermediate glycation product (α-dicarbonyl compounds) formation; type: biochemical; settings: versus untreated glycated collagen control
Protocol: as §1
Along the glycation process, amadori product is transformed into intermediate-product such as α-dicarbonyl compounds. […]

## N=C(N)NN [aminoguanidine]
Porcine collagen [1]
  reduction of relative fructosamine formation: about 8%
Porcine collagen [2]
  reduction of relative α-dicarbonyl compounds formation: practically incapable of suppressing the formation of α-dicarbonyl compounds

Source: patent US9687438B2, “Method for enhancing collagen secretion and preventing cutaneous aging using chenopodium formosanum extract” (TCI Co., Ltd., priority 2014, dated 2017)
